Measurements taken from patent publication US20140051696A1, “THERAPIES FOR TREATING CANCER” (GILEAD CALISTOGA LLC, priority 2012, published 2014).
Entries after “also recorded” stand apart in the source; their conditions may differ. Read-outs that look alike come from different tables or passages of the source.

Assays:
recurrent CLL = settings: cited from earlier work; for median progression-free survival (PFS): patients with recurrent CLL
[1] = Safety and tolerability in healthy human subjects; settings: for tolerability: over the dose range evaluated, healthy subjects
From the text: The endpoints evaluated include AEs, physical examination and clinical laboratory test findings, 12-lead ECG abnormalities and interval measurements, and vitals signs measurements.
Safety data for each cohort was reviewed after the 10-day observation period following each 4 day treatment period. Subsequent treatments in each cohort were only initiated following post dose safety assessments.

[2] = system: WSU-FSCCL resistant cells; test: AlamarBlue growth inhibition, WSU-FSCCL resistant cells; format: cell-based, human; settings: 72 hr
Method: The WSU-FSCCL parental cells were, initially, responsive to treatment of Compound A (FIG. 10A). […] Such cells were cultured and referred to as WSU-FSCCL resistant cells. This reflects a commonly observed clinical situation that patients become resistance or no longer respond to the existing treatment. Both the parental and the resistant cells of WSU-FSCCL were used in this study. […] The […] cells were added with the compounds in the serial dilution and incubated at 37° C. for 72 hr, followed by the addition of 12.5 μL AlamarBlue (Invitrogen #DAL1100). Plates were then incubated at 37° C. for 4 hours. The change of color from uptake of the stains in the living cells was measured for absorbance. Fluorescence Ex530, Em590, Cutoff570 on Spectramax M5 (Molecular Dynamics) were determined.

[3] = system: AKT phosphorylation (S473) in Ramos cells; test: Immunoblot phospho-Akt in Ramos cells after anti-IgM BCR stimulation; format: cell-based, human; settings: 1 uM each, IgM mediated BCR stimulation
Method: (§1) 5×10^6 Ramos (a Burkitt's cell line with intact BCR) were plated and treated with 1 uM of Compound A, 1 uM of Compound B, alone or in combination for 25 hours. Twenty μg Goat F(ab′)2 anti-human IgM (Invitrogen) was added to stimulate the BCR for 30 minutes. Protein were isolated and analyzed using immune-blotting with phospho-Akt (S473), phospho-Erk (T202/Y204), and phospho-S6.

CCL2, CCL3, and CCL4 = test: Chemokine release ELISA, CLL patient samples in conditioned media; format: cell-based, human; settings: patient samples cultured in conditioned media; alone and in combination
Method: (§3) In this Example, CLL patient samples were assessed for growth inhibition, chemokine release, and pathway activation status using a tetrazolium-based MTS assay, ELISA, and flow cytometry, respectively. Peripheral blood mononuclear cells (PBMCs) were isolated from primary patient samples using a Ficoll-Paque gradient. […] 5×10^5 primary cells were cultured in triplicate in HS-5 stromal cell conditioned media and growth inhibition was determined after 72 hours.

[4] = system: AKT phosphorylation (S473) in CLL cells; test: Flow cytometry phospho-Akt in CLL cells co-cultured with HS5 stromal cells; format: cell-based, human; settings: CLL cells of 15 patients co-cultured with HS5 stromal cells
From the text: (§2) Ficoll purified CLL cells obtained from 15 patients were co-cultured with HS5 stromal cells then treated with each compound alone or in combination. CLL cells were stained with anti-CD5-FITC and either anti-phospho-Akt S473 (Alexa Fluor 488), phospho-S6 or an […] control antibody (mouse IgG1-Alexa Fluor 488 conjugate, Cell Signaling) and analyzed by 2-color flow cytometry.

[5] = Plasma pharmacokinetics in healthy human subjects, alone or in combination; settings: for AUC / Cmax: human, Mean (% CV); for AUC: AUCtau
Method: On Day 1, PK samples were collected at pre-dose, 2, 4, 8, and 12 hours post dose. On Day 4, samples were collected relative to the AM dose of study drug(s) at the following time points: pre-dose, 1, 2, 2.5, 3, 4, 6, 8, 10, 12, 18, 24, 36, and 48 hours post dose. Trough PK samples were collected on Day 3 prior to dosing.

[6] = system: S6 phosphorylation in CLL cells; test: Flow cytometry phospho-S6 in CLL cells co-cultured with HS5 stromal cells; format: cell-based, human; settings: CLL cells of 15 patients co-cultured with HS5 stromal cells
From the text: as §2

WSU-FSCCL parental cells = test: AlamarBlue growth inhibition, WSU-FSCCL parental cells; format: cell-based, human; settings: initially, 72 hr
Method: The WSU-FSCCL parental cells were, initially, responsive to treatment of Compound A (FIG. 10A). […] Such cells were cultured and referred to as WSU-FSCCL resistant cells. This reflects a commonly observed clinical situation that patients become resistance or no longer respond to the existing treatment. Both the parental and the resistant cells of WSU-FSCCL were used in this study.
A 7× serial dilution of Compound A and Compound C from a stock of 10 mM (DMSO) was prepared using RPMI+10% FBS (270 μM). The WS-FSCCL cells were added with the compounds in the serial dilution and incubated at 37° C. for 72 hr, followed by the addition of 12.5 μL AlamarBlue (Invitrogen #DAL1100). Plates were then incubated at 37° C. for 4 hours.
The change of color from uptake of the stains in the living cells was measured for absorbance. Fluorescence Ex530, Em590, Cutoff570 on Spectramax M5 (Molecular Dynamics) were determined. To calculate the 50% inhibition of growth (GI50), the reading from the samples were compared to the controls (100% or 0% absorption).

primary CLL cells = test: MTS cell viability assay of primary CLL cells in HS-5 conditioned media; settings: Homo sapiens
Method: as §3
Peripheral blood (PB) or bone marrow (BM) was collected from 14 CLL patients with untreated, relapsed, or refractory diseases. Mononuclear cells were isolated using a Ficoll-Paque gradient and were plated in triplicate into 96-well containing HS-5 conditioned media plus equimolar concentrations of Compound A and Compound B (10 μM to 0.61 nM). After 72 hours, viability was determined by MTS assay (CellTiter 96, Promega).

[7] = system: ERK phosphorylation (T202/Y204) in Ramos cells; test: Immunoblot phospho-Erk in Ramos cells after anti-IgM BCR stimulation; format: cell-based, human; settings: 1 uM each, IgM mediated BCR stimulation
Method: as §1

[8] = Compound A analyte, Compound A 150 mg + Compound B 600 mg vs Compound A 150 mg
[9] = Compound A analyte, Compound A 100 + Compound B 200 or 600 mg vs Compound A 100 mg
[10] = plasma, oral, 100 mg, Compound A analyte, Compound A 100 mg BID alone, fed (N = 16)
[11] = plasma, oral, 150 mg, Compound A analyte, Compound A 150 mg BID alone, fed (N = 7)
[12] = plasma, oral, Compound A analyte, Compound A 150 mg + Compound B 600 mg BID, fed (N = 6)
[13] = plasma, oral, Compound A analyte, Compound A 100 + Compound B 200 or 600 mg BID, fed (N = 16)
[14] = Compound B analyte, Compound B 200 mg + Compound A 100 mg vs Compound B 200 mg
[15] = Compound B analyte, Compound B 600 mg + Compound A 100/150 mg vs Compound B 600 mg
[16] = in vivo, 200 mg, Compound B analyte, Compound B 200 mg BID alone, fed (N = 8)
[17] = in vivo, 600 mg, Compound B analyte, Compound B 600 mg BID alone, fed (N = 16)
[18] = in vivo, Compound B analyte, Compound B 200 mg + Compound A 100 mg BID, fed (N = 8)
[19] = in vivo, Compound B analyte, Compound B 600 mg + Compound A 100/150 mg BID, fed (N = 14)

alemtuzumab
median progression-free survival (PFS) (recurrent CLL): 4.7 months

CC[C@H](Nc1ncnc2[nH]cnc12)c1nc2cccc(F)c2c(=O)n1-c1ccccc1 [Compound A, (S)-2-(1-(9H-purin-6-ylamino)propyl)-5-fluoro-3-phenylquinazolin-4(3H)-one]
adverse event leading to discontinuation of treatment ([1]; one individual, during Compound A 150 mg dosing): Grade 1 ALT/AST elevation
tolerability [1]: generally well-tolerated
cell viability / sensitivity of WSU-FSCCL resistant cells [2]: became resistant to the treatment
AKT phosphorylation in Ramos cells [3]: inhibited or decreased
production of CCL2, CCL3, and CCL4 by CLL cells (CCL2, CCL3, and CCL4): reduced
AKT phosphorylation in CLL cells [4]: inhibited or decreased
Ctau, Mean (% CV) ([5]; Compound A analyte, Compound A 100 mg BID alone, fed (N = 16)): 127 (44) ng/ml
Ctau, Mean (% CV) ([5]; Compound A analyte, Compound A 150 mg + Compound B 600 mg BID, fed (N = 6)): 411 (29) ng/ml
AUCtau, % Geometric Least Squares Means Ratio (90% CI), Combination vs. Alone [5, 8]: 1.11 (1.00, 1.24) %
Cmax, % Geometric Least Squares Means Ratio (90% CI), Combination vs. Alone [5, 8]: 1.06 (0.93, 1.21) %
Ctau, % Geometric Least Squares Means Ratio (90% CI), Combination vs. Alone [5, 8]: 1.23 (1.03, 1.47) %
Ctau, Mean (% CV) ([5]; Compound A analyte, Compound A 150 mg BID alone, fed (N = 7)): 320 (43) ng/ml
Ctau, Mean (% CV) ([5]; Compound A analyte, Compound A 100 + Compound B 200 or 600 mg BID, fed (N = 16)): 170 (50) ng/ml
AUCtau, % Geometric Least Squares Means Ratio (90% CI), Combination vs. Alone [5, 9]: 1.17 (1.13, 1.22) %
Cmax, % Geometric Least Squares Means Ratio (90% CI), Combination vs. Alone [5, 9]: 1.13 (1.07, 1.20) %
Ctau, % Geometric Least Squares Means Ratio (90% CI), Combination vs. Alone [5, 9]: 1.33 (1.20, 1.48) %
exposure of Compound A, combination vs alone ([5]; healthy subjects): minor variations
AUC [5, 10]: 8070 ng·h/mL
Cmax [5, 10]: 1660 ng/mL
AUC [5, 11]: 13800 ng·h/mL
Cmax [5, 11]: 2680 ng/mL
AUC [5, 12]: 15800 ng·h/mL
AUC [5, 13]: 9510 ng·h/mL
Cmax [5, 12]: 2870 ng/mL
Cmax [5, 13]: 1880 ng/mL
S6 phosphorylation in CLL cells [6]: inhibited or decreased
response of WSU-FSCCL parental cells to treatment (WSU-FSCCL parental cells): responsive

ofatumumab
median progression-free survival (PFS) (recurrent CLL): 5.8 months

c1cn2cc(-c3ccc4cn[nH]c4c3)nc(Nc3ccc(N4CCOCC4)cc3)c2n1 [Compound B, 6-(1H-indazol-6-yl)-N-(4-morpholinophenyl)imidazo[1,2-a]pyrazin-8-amine]
tolerability [1]: generally well-tolerated
IC50 (primary CLL cells; 72 h, read-out: median cell viability IC50): 3.7 µM
IC50 (primary CLL cells; read-out: cell viability IC50 obtained in 7 samples (50%)): ≤ 2 µM
AKT phosphorylation in Ramos cells [3]: inhibited or decreased
production of CCL2, CCL3, and CCL4 by CLL cells (CCL2, CCL3, and CCL4): reduced
AKT phosphorylation in CLL cells [4]: inhibited or decreased
Ctau, Mean (% CV) ([5]; Compound B analyte, Compound B 200 mg + Compound A 100 mg BID, fed (N = 8)): 380 (62) ng/ml
AUCtau, % Geometric Least Squares Means Ratio (90% CI), Combination vs. Alone [5, 14]: 1.64 (1.41, 1.91) %
Cmax, % Geometric Least Squares Means Ratio (90% CI), Combination vs. Alone [5, 14]: 1.50 (1.24, 1.80) %
Ctau, % Geometric Least Squares Means Ratio (90% CI), Combination vs. Alone [5, 14]: 1.96 (1.61, 2.38) %
Ctau, Mean (% CV) ([5]; Compound B analyte, Compound B 200 mg BID alone, fed (N = 8)): 201 (661) ng/ml
Ctau, Mean (% CV) ([5]; Compound B analyte, Compound B 600 mg + Compound A 100/150 mg BID, fed (N = 14)): 1120 (72) ng/ml
AUCtau, % Geometric Least Squares Means Ratio (90% CI), Combination vs. Alone [5, 15]: 1.51 (1.30, 1.75) %
Cmax, % Geometric Least Squares Means Ratio (90% CI), Combination vs. Alone [5, 15]: 1.38 (1.20, 1.59) %
Ctau, % Geometric Least Squares Means Ratio (90% CI), Combination vs. Alone [5, 15]: 1.74 (1.48, 2.03) %
Ctau, Mean (% CV) ([5]; Compound B analyte, Compound B 600 mg BID alone, fed (N = 16)): 832 (82) ng/ml
AUC [5, 16]: 4150 ng·h/mL
Cmax [5, 16]: 618 ng/mL
AUC [5, 17]: 12700 ng·h/mL
Cmax [5, 17]: 1570 ng/mL
AUC [5, 18]: 6750 ng·h/mL
AUC [5, 19]: 16000 ng·h/mL
Cmax [5, 18]: 915 ng/mL
Cmax [5, 19]: 1900 ng/mL
S6 phosphorylation in CLL cells [6]: inhibited or decreased
ERK phosphorylation in Ramos cells [7]: inhibit or reduced; also recorded: near complete inhibition or reduction

rituximab
median PFS (recurrent CLL; addition of high-dose methylprednisone to rituximab): 12 months
